Measurements taken from ChEMBL document CHEMBL3991950, “Imidazolidinedione derivatives” (2011).
The source made the active and inactive calls.

What was measured:
[1] = biological target: T1, Voltage-gated potassium channel KCNC2 (Homo sapiens) (UniProt Q96PR1); assay: Modulation activity at human recombinant Kv3.2 expressed in CHOK1 cells assessed as potentiation of whole-cell currents by measuring activation time at 3.1 uM at -70 mV holding potential incubated for 3 mins by lonWorks Quattro system based electrophysiology assay (reference value: 7.1 ms)
T1 sequence (whole entry): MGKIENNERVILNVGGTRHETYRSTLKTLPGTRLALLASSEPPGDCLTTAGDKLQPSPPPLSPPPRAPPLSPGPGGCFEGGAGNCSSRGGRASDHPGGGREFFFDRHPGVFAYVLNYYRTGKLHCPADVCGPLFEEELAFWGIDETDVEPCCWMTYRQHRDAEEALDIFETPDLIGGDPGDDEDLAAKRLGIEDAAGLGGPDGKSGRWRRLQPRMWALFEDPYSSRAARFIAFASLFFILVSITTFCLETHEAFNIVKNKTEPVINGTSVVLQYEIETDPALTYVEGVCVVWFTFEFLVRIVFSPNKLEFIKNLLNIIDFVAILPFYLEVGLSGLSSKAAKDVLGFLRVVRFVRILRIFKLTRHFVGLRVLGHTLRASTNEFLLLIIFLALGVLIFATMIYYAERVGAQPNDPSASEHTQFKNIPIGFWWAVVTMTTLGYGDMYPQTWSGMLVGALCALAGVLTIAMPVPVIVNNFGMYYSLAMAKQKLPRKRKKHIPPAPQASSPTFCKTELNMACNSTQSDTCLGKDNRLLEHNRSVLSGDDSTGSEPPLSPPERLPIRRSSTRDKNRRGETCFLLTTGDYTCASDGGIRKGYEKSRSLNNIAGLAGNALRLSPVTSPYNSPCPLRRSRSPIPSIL

[2] = system: Rattus norvegicus; assay: Increase in threshold for tonic hindlimb extensor seizures in CD rat model of electroshock seizure at 300 mg/kg, po relative to untreated control; type: functional
[3] = biological target: T1, Voltage-gated potassium channel KCNC2 (Homo sapiens); assay: Negative modulation activity at human recombinant Kv3.2 expressed in CHOK1 cells assessed as effect on activation time at -70 mV holding potential incubated for 3 mins by lonWorks Quattro system based electrophysiology assay; type: cell-based
[4] = biological target: T1, Voltage-gated potassium channel KCNC2 (Homo sapiens); assay: Modulation activity at human recombinant Kv3.2 expressed in CHOK1 cells assessed as potentiation of whole-cell currents by measuring activation time at 0.2 uM at -70 mV holding potential incubated for 3 mins by lonWorks Quattro system based electrophysiology assay
[5] = system: Mus musculus; assay: Reduction in amphetamine-induced hyperactivity in CD1 mouse assessed as amphetamine-induced increase in total distance travelled at 3 mg/kg, ip pretreated with compound 30 mins before amphetamine challenge and measured over 60 mins post amphetamine challenge (reference value: 16304 +/- 3309 cm); type: functional
[6] = system: Mus musculus; assay: Reduction in amphetamine-induced hyperactivity in CD1 mouse assessed as reduction in amphetamine-induced increase in total distance travelled at 3 mg/kg, ip pretreated with compound 30 mins before amphetamine challenge and measured over 60 mins post amphetamine challenge; type: functional, organism-based
[7] = biological target: T1, Voltage-gated potassium channel KCNC2 (Homo sapiens); assay: Modulation activity at human recombinant Kv3.2 expressed in CHOK1 cells assessed as potentiation of whole-cell currents by measuring activation time at 0.8 uM at -70 mV holding potential incubated for 3 mins by lonWorks Quattro system based electrophysiology assay (reference value: 7.1 ms)
[8] = biological target: T1, Voltage-gated potassium channel KCNC2 (Homo sapiens); assay: Positive modulation activity at human recombinant Kv3.2 expressed in CHOK1 cells assessed as effect on activation time at -70 mV holding potential incubated for 3 mins by lonWorks Quattro system based electrophysiology assay (reference value: 7.1 ms); type: cell-based
[9] = biological target: T1, Voltage-gated potassium channel KCNC2 (Homo sapiens); assay: Modulation activity at human recombinant Kv3.2 expressed in CHOK1 cells assessed as potentiation of whole-cell currents by measuring activation time at 0.4 uM at -70 mV holding potential incubated for 3 mins by lonWorks Quattro system based electrophysiology assay (reference value: 7.1 ms)
[10] = system: Callithrix jacchus; assay: Sedative or hypnotic effect in marmoset assessed as reduction in number of animal jumps at 1 and 3 mg/kg, po dosed 2 hrs before test and measured over 2 mins post dose; type: functional, organism-based
[11] = biological target: T1, Voltage-gated potassium channel KCNC2 (Homo sapiens); assay: Modulation activity at human recombinant Kv3.2 expressed in CHOK1 cells assessed as potentiation of whole-cell currents at 6.3 uM at -70 mV holding potential incubated for 3 mins by lonWorks Quattro system based electrophysiology assay
[12] = system: Rattus norvegicus; assay: Increase in threshold for tonic hindlimb extensor seizures in CD rat model of electroshock seizure at 60 mg/kg, po relative to untreated control; type: functional
[13] = system: Rattus norvegicus; assay: Increase in threshold for tonic hindlimb extensor seizures in CD rat model of electroshock seizure at 30 mg/kg, po relative to untreated control; type: functional
[14] = biological target: T1, Voltage-gated potassium channel KCNC2 (Homo sapiens); assay: Modulation activity at human recombinant Kv3.2 expressed in CHOK1 cells assessed as potentiation of whole-cell currents by measuring activation time at 6.25 uM at -70 mV holding potential incubated for 3 mins by lonWorks Quattro system based electrophysiology assay (reference value: 7.1 ms)
[15] = system: Callithrix jacchus; assay: Effect on animal postures in marmoset at 1 and 3 mg/kg, po dosed 2 hrs before test and measured over 2 mins post dose; type: ADME, organism-based; details: in vivo
[16] = biological target: T1, Voltage-gated potassium channel KCNC2 (Homo sapiens); assay: Modulation activity at human recombinant Kv3.2 expressed in CHOK1 cells assessed as potentiation of whole-cell currents at 25 uM at -70 mV holding potential incubated for 3 mins by lonWorks Quattro system based electrophysiology assay
[17] = organism: Mus musculus; assay: (§1) Modulation activity at Kv3 channel-mediated firing activity of parvalbumin-positive interneurons isolated form somatosensory cortex of transgenic [CB6-Tg (Gad1-EGFP) G42Zjh/J] mouse assessed as reduction in 0.5 mM TEA-induced action potential half-width at 10 uM incubated for 1 hr at resting potential of -80 mV by electrophysiology assay
[18] = biological target: T2, Voltage-gated potassium channel KCNC1 (Mus musculus) (UniProt P15388); assay: Modulation activity at Kv3.1 channel-mediated potassium currents in neurons isolated from medial nucleus of trapezoid body in CBA/Ca mouse assessed as reversal of TEA-induced reduction in voltage steps to +40 mV-evoked amplitude of outward high voltage-activated potassium currents at 10 uM at resting potential of -60 mV incubated for 5 mins by electrophysiology assay
T2 sequence (whole entry): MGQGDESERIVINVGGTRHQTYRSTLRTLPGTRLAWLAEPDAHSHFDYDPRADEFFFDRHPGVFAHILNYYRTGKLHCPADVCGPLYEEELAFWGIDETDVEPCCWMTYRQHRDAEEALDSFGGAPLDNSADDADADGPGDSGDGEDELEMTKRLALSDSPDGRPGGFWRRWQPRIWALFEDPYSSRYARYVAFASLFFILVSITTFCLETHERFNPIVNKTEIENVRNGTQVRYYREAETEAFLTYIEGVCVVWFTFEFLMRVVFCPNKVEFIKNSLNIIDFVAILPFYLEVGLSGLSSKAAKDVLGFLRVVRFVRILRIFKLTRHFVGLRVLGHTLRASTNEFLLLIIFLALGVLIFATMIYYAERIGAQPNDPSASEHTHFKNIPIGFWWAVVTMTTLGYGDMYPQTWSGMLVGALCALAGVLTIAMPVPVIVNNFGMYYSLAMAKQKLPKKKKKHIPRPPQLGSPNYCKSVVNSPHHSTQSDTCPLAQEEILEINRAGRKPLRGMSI

[19] = organism: Mus musculus; assay: as §1, with “1” for “10”
[20] = system: Mus musculus; assay: Reduction in amphetamine-induced hyperactivity in CD1 mouse assessed as reduction in amphetamine-induced increase in total distance travelled at 60 mg/kg, po pretreated with compound 30 mins before amphetamine challenge and measured over 60 mins post amphetamine challenge; type: functional, organism-based
[21] = system: Mus musculus; assay: Reduction in amphetamine-induced hyperactivity in CD1 mouse assessed as reduction in amphetamine-induced increase in total distance travelled at 30 mg/kg, po pretreated with compound 30 mins before amphetamine challenge and measured over 60 mins post amphetamine challenge; type: functional, organism-based
[22] = system: Mus musculus; assay: Reduction in amphetamine-induced hyperactivity in CD1 mouse assessed as amphetamine-induced increase in total distance travelled at 10 mg/kg, po pretreated with compound 30 mins before amphetamine challenge and measured over 60 mins post amphetamine challenge (reference value: 16304 +/- 3309 cm); type: functional
[23] = system: Callithrix jacchus; assay: Antipsychotic-like activity in common marmoset assessed as induction of increase in theta band power at 3 mg/kg, po measured at 60 mins by electroencephalography analysis; type: functional, organism-based
[24] = system: Callithrix jacchus; assay: Antipsychotic-like activity in common marmoset assessed as induction of increase in absolute power in delta band at 3 mg/kg, po measured between 30 and 120 mins by electroencephalography analysis; type: functional, organism-based
[25] = biological target: T1, Voltage-gated potassium channel KCNC2 (Homo sapiens); assay: Modulation activity at human recombinant Kv3.2 expressed in CHOK1 cells assessed as potentiation of whole-cell currents by measuring activation time at 12.5 uM at -70 mV holding potential incubated for 3 mins by lonWorks Quattro system based electrophysiology assay (reference value: 7.1 ms)
[26] = system: Callithrix jacchus; assay: Antipsychotic-like activity in common marmoset assessed as induction of increase in absolute power in delta band at 1 mg/kg, po measured at 30 mins by electroencephalography analysis; type: functional, organism-based
[27] = system: Callithrix jacchus; assay: Antipsychotic-like activity in common marmoset assessed as induction of reduction in power in beta band at 1 mg/kg, po measured at 30 mins by electroencephalography analysis; type: functional, organism-based
[28] = system: Callithrix jacchus; assay: Effect on absolute power in alpha band in common marmoset at 0.3 to 3 mg/kg, po by electroencephalography analysis; type: ADME, organism-based; details: in vivo

`CCc1cc(Oc2ccc(N3C(=O)N[C@H](CC)C3=O)cn2)ccc1C#N` showed a TIME [1] of 2.28e-06 h.

Work on `CCCC(CCC)C(=O)[O-].[Na+]` [VALPROATE SODIUM] yielded an Activity [2] of 258%.

Work on `CC[C@H]1NC(=O)N(c2ccc(Oc3ccc(C#N)c(OC(F)(F)F)c3)nc2)C1=O` yielded a TIME [1] of 2.89e-06 h.

Work on `CC[C@H]1NC(=O)N(c2ccc(Oc3ccc(C#N)c(OC(C)C)c3)nc2)C1=O` yielded a TIME [1] of 2.69e-06 h.

For `CC[C@H]1NC(=O)N(c2ccc(Oc3ccc(C#N)cc3C(C)(C)C)nc2)C1=O`, the inhibition [3] was “Active” and the TIME [4] was 6.39e-06 h.

With `CN1CCN(C2=Nc3cc(Cl)ccc3Nc3ccccc32)CC1` [CLOZAPINE] the Activity [5] was 932 cm and the Activity [6] was “Active”.

`CC[C@H]1NC(=O)N(c2ccc(Oc3ccc(C#N)c(C(C)C)c3)nc2)C1=O` was tested, and the TIME [7] was 2.56e-06 h and the Activity [8] was “Active”.

With `CC1(C)NC(=O)N(c2ccc(Oc3cccc4c3C3(CC3)CO4)nc2)C1=O` the TIME [9] was 5.36e-06 h and the inhibition [3] was “Active”.

`CC[C@H]1NC(=O)N(c2ccc(Oc3ccc(C#N)cc3C3CC3)nc2)C1=O` was tested, and the TIME [1] was 3.61e-06 h and the Activity [8] was “Active”.

In the case of `CC[C@H]1NC(=O)N(c2ccc(Oc3ccc(C)c(OC)c3)nc2)C1=O`, the Activity [10] is reported as “Active”, the Activity [11] is reported as “Active” and the Activity [12] is reported as 218%. For the same compound, the Activity [13] was 91%, the TIME [14] was 2.75e-06 h and the Activity [15] was “Non-Toxic”. The Activity [16] was “Active”, the inhibition [17] was 36% and the Activity [18] was “Active”. The inhibition [19] was 24%, the Activity [8] was “Active” and the Activity [20] was “Active”. For the same compound, the Activity [21] was “Active” and the Activity [22] was 15267 cm.

`CC[C@@]1(C)NC(=O)N(c2ccc(Oc3ccc(C)c(OC)c3)nc2)C1=O` was tested, and the Activity [23] was “Active”, the Activity [24] was “Active” and the TIME [25] was 2.03e-06 h. For the same compound, the Activity [26] was “Active”, the Activity [8] was “Active” and the Activity [27] was “Active”. For the same compound, the Activity [28] was “Non-Toxic”.

With `CC[C@H]1NC(=O)N(c2ccc(Oc3ccc(C#N)c(C4CC4)c3)nc2)C1=O` the TIME [1] was 2.11e-06 h and the Activity [8] was “Active”.
